ChEMBL document CHEMBL1649482, “Gene Context and DNA rearrangements in the carbapenemase locus of division II strains of Bacteroides fragilis” (2009)
Converted amounts (≈) assume the structure as drawn.

Experiments:
Type in all cases: functional
Bacteroides fragilis [1] = experiment: Antimicrobial activity against Bacteroides fragilis MN32 imipenemase activity after 24 hrs by agar dilution method; conditions: MN32, 24 h
Bacteroides fragilis [2] = experiment: Antimicrobial activity against Bacteroides fragilis MN35 after 24 hrs by agar dilution method; conditions: MN35, 24 h
Bacteroides fragilis [3] = experiment: Antimicrobial activity against Bacteroides fragilis MN5 after 24 hrs by agar dilution method; conditions: MN5, 24 h
Bacteroides fragilis [4] = experiment: Antimicrobial activity against Bacteroides fragilis MN11 expressing imipenemase activity after 24 hrs by agar dilution method; conditions: MN11, 24 h
Bacteroides fragilis [5] = experiment: Antimicrobial activity against Bacteroides fragilis MN36 after 24 hrs by agar dilution method; conditions: MN36, 24 h
Bacteroides fragilis [6] = experiment: Antimicrobial activity against Bacteroides fragilis MN4a
Bacteroides fragilis [7] = experiment: Antimicrobial activity against Bacteroides fragilis MN41 after 24 hrs by agar dilution method; conditions: MN41, 24 h

MIC (Bacteroides fragilis [1]): 128 µg/mL (≈ 428 µM) | MIC (Bacteroides fragilis [2]): 0.25 µg/mL (≈ 0.835 µM) | MIC (Bacteroides fragilis [3]): 0.25 µg/mL (≈ 0.835 µM) | MIC (Bacteroides fragilis [4]): 256 µg/mL (≈ 855 µM) | MIC (Bacteroides fragilis [5]): 0.25 µg/mL (≈ 0.835 µM) | MIC (Bacteroides fragilis [6]): 0.5 µg/mL (≈ 1.67 µM) | MIC (Bacteroides fragilis [7]): 0.25 µg/mL (≈ 0.835 µM)
Structure (SMILES): C[C@@H](O)[C@H]1C(=O)N2C(C(=O)O)=C(SCCNC=N)C[C@H]12 [IMIPENEM ANHYDROUS]
